Counter-ions that a name gives are not always drawn.
Columns and labels:
Format in all cases: biochemical
[1] = system: human plasma; experiment: Human plasma anticoagulation, prothrombin time (PT); conditions: concentration required to double PT, linear extrapolation
Method: (§1) Dog plasma and rat plasma is obtained from conscious mixed-breed hounds (either sex, Hazelton-LRE, Kalamazoo, Mich., U.S.A.) or from anesthetized male Sprague-Dawley rats (Harlan Sprague-Dawley, Inc., Indianapolis, Ind., U.S.A.) by venipuncture into 3.8 percent citrate. Fibrinogen is prepared from in-date ACD human blood as the fraction I-2 according to previous procedures and specifications. […] Human fibrinogen is also purchased as 98 percent pure/plasmin free from American Diagnostica, Greenwich, Conn. Coagulation reagents ACTIN, Thromboplastin, and Human plasma are from Baxter Healthcare Corp., Dade Division, Miami, Fla. Bovine thrombin from Parke-Davis ([…], Mich.) is used for coagulation assays in plasma.
(§2) Coagulation assay procedures are as previously described. […] A CoAScreener coagulation instrument (American LABor, Inc.) is used for all coagulation assay measurements. The prothrombin time (PT) is measured by adding 0.05 mL saline and 0.05 mL Thromboplastin-C reagent to 0.05 mL test plasma. The activated partial thromboplastin time (APTT) is measured by incubation of 0.05 mL test plasma with 0.05 mL Actin reagent for 120 seconds followed by 0.05 mL CaCl2 (0.02M). The thrombin time (TT) is measured by adding 0.05 mL saline and 0.05 mL thrombin (10 NIH units/mL) to 0.05 mL test plasma. The compounds of Formula I are added to human or animal plasma over a wide range of concentrations to determine prolongation effects on the APTT, PT, and TT assays. Linear extrapolations are performed to estimate the concentrations required to double the clotting time for each assay.

[2] = system: human plasma; experiment: Human plasma anticoagulation, thrombin time (TT); conditions: concentration required to double thrombin time, linear extrapolation
Method: as §1, §2

[3] = system: human plasma; experiment: Human plasma anticoagulation, activated partial thromboplastin time (APTT); conditions: concentration required to double APTT, linear extrapolation
Method: as §1, §2

Molecule	Human Plasma Anticoagulation 2x Clotting time PT [1]	Human Plasma Anticoagulation 2x Clotting time TT [2]	Human Plasma Anticoagulation 2x Clotting time APTT [3]
CCC(CC)C(=O)N[C@@H](CCS(C)(=O)=O)C(=O)N1CCC[C@H]1C(=O)NCc1ccc(C(=N)N)cc1 [Example 91, (C2 H5)2 CHCO-Met(O2)-Pro-p-NHCH2 C6 H4 C(NH)NH2.HCl]	3,500 ng/mL	63 ng/mL	3,000 ng/mL
N=C(N)c1ccc(CNC(=O)[C@@H]2C[C@@H]3CCCC[C@@H]3N2C(=O)[C@H]2C[C@H]3CCCC[C@H]3CN2)cc1 (relative stereo) [Example 43, D-3-Piq-cis-Ohi-p-NHCH2 C6 H4 C(NH)NH2.2HCl]	930 ng/mL	280 ng/mL	1,100 ng/mL
CCS(=O)(=O)N[C@H](Cc1ccccc1)C(=O)N1CCC[C@H]1C(=O)NCCCCN=C(N)N.Cl [Example 1, EtSO2 -D-Phe-Pro-Agm.Hcl]		250 ng/mL	
NCc1ccc(CNC(=O)[C@@H]2CCCN2C(=O)[C@H](N)Cc2ccccc2)cc1 [Example 10, D-Phe-Pro-p-NHCH2 C6 H4 CH2 NH2.HCl]		420 ng/mL	
N=C(N)c1ccc(CNC(=O)[C@@H]2CCCN2C(=O)[C@@H](CC2CCCCC2)NCC(=O)O)s1 [Example 65, N-(carboxymethyl)-D-cyclohexylalanyl-N-[[5-(aminoiminomethyl)thiophen-2-yl]methyl]-L-prolinamide hydrochloride]		1 ng/mL	48 ng/mL
N=C(N)c1ccc(CNC(=O)[C@@H]2CCCN2C(=O)[C@@H](CC2CCCCC2)NCC(=O)O)cc1 [Example 48, N-(carboxymethyl)-D-cyclohexylalanyl-N-[[4-(aminoiminomethyl)phenyl]methyl]-L-prolinamide]	59 ng/mL	2 ng/mL	33 ng/mL
Nc1ccc(CNC(=O)[C@@H]2CCCN2C(=O)[C@H](N)Cc2ccccc2)cc1 [Example 13, D-Phe-Pro-p-NHCH2 C6 H4 NH2.HCl]		660 ng/mL	
CCS(=O)(=O)N[C@H](Cc1ccccc1)C(=O)N1CCC[C@H]1C(=O)NCCCc1cccc(C(=N)N)c1 [Example 31, EtSO2 -D-Phe-Pro-m-NHCH2 CH2 CH2 -C6 H4 C(=NH)NH2.HCl]	30,000 ng/mL		
N=C(N)NCCCNC(=O)[C@@H]1CCCN1C(=O)[C@H](N)Cc1ccccc1 [Example 7, D-Phe-Pro-NH(CH2)3 NHC(NH)NH2.HCl]		490 ng/mL	
N=C(N)Nc1cccc(CNC(=O)[C@@H]2CCCN2C(=O)[C@@H]2NCC[C@@H]3CCCC[C@@H]32)c1 [Example 40, D-1-Piq-Pro-m-NHCH2 C6 H4 NHC(NH)NH2.2HCl]	> 91,000 ng/mL		> 91,000 ng/mL
N=C(N)NCCCCNC(=O)[C@@H]1CCCN1C(=O)[C@@H]1NCC[C@H]2CCCC[C@H]21 [Example 61, N-[4-[(aminoiminomethyl)amino]butyl]-1-[[(4aR,8aR)-decahydro-1(R)-isoquinolinyl]carbonyl]-1-prolinamide trihydrochloride]		45 ng/mL	
(S-cis)-N-[[4-(amino iminomethyl)phenyl]methyl]-1-[N-(ethylsulfonyl)-D-phenylglycyl]-1H-indole- 2-carboxamide hydrochloride [Example 44]	170 ng/mL	4 ng/mL	100 ng/mL
CCS(=O)(=O)N[C@H](Cc1ccccc1)C(=O)N1CCC[C@H]1C(=O)NCc1cccc(C(=N)N)c1 [Example 24, EtSO2 -D-Phe-Pro-m-NHCH2 -C6 H4 C(=NH)NH2.HCl]	25,000 ng/mL	1,000 ng/mL	
CCS(=O)(=O)N[C@H](Cc1ccccc1)C(=O)N1CCC[C@H]1C(=O)NCc1ccc(NC(=N)N)cc1 [Example 34, EtSO2 -D-Phe-Pro-p-NHCH2 C6 H4 NHC(NH)NH2.HCl]	5,500 ng/mL	530 ng/mL	4,900 ng/mL
N=C(N)c1ccc(CNC(=O)[C@@H]2C[C@@H]3CCCC[C@@H]3N2C(=O)[C@H]2CCCCN2)cc1 (relative stereo) [Example 20, (S-cis)-N-[[4-(aminoiminomethyl)phenyl]methyl]-octahydro-1-D-homoprolyl-1H-indole-2-carboxamide trihydrochloride]	600 ng/mL		
Nc1ccc(CNC(=O)[C@@H]2CCCN2C(=O)[C@@H](CC2CCCCC2)NCC(=O)O)cc1 [Example 62, HO2 CCH2 -D-Cha-Pro-4-NHCH2 C6 H4 NH2.HCl]		54 ng/mL	
N=C(N)NCCCCCCNC(=O)[C@@H]1CCCN1C(=O)[C@H](N)Cc1ccccc1 [Example 5, D-Phe-Pro-NH(CH2)6 NHC(NH)NH2.HCl]		30,000 ng/mL	
O=C(O)CN[C@H](CC1CCCCC1)C(=O)N1CCC[C@H]1C(=O)NCCCC1CCNCC1 [Example 55, HO2 CCH2 -D-Cha-Pro-4-NHCH2 CH2 CH2 -piperidine.HCl]	> 91,000 ng/mL		> 91,000 ng/mL
CCS(=O)(=O)N[C@H](Cc1ccccc1)C(=O)N1CCC[C@H]1C(=O)NCc1cccc(NC(=N)N)c1 [Example 36, EtSO2 -D-Phe-Pro-m-NHCH2 C6 H4 NHC(NH)NH2.HCl]	> 91,000 ng/mL	7,700 ng/mL	> 91,000 ng/mL
N=C(N)c1ccc(CNC(=O)[C@@H]2CCCN2C(=O)[C@@H](CCC2CCCCC2)NCC(=O)O)cc1 [Example 88, hydrochloride]	200 ng/mL	4 ng/mL	100 ng/mL
N=C(N)Nc1ccc(CNC(=O)[C@@H]2CCCN2C(=O)[C@@H]2NCC[C@@H]3CCCC[C@@H]32)cc1 [Example 38, D-1-piq-pro-p-NHCH2 C6 H4 NHC(NH)NH2.2HCl]		540 ng/mL	6,100 ng/mL
N=C(N)Nc1cccc(CCNC(=O)[C@@H]2CCCN2C(=O)[C@@H]2NCC[C@@H]3CCCC[C@@H]32)c1 [Example 41, D-1-Piq-Pro-m-NHCH2 CH2 C6 H4 NHC(NH)NH2.2HCl]	> 91,000 ng/mL		> 91,000 ng/mL
O=C(O)CN[C@H](CC1CCCCC1)C(=O)N1CCC[C@H]1C(=O)NCC1CCNCC1 [Example 53, HO2 CCH2 -D-Cha-Pro-4-NHCH2 -piperidine.HCl]		1,400 ng/mL	
N=C(N)NCc1ccc(CNC(=O)[C@@H]2CCCN2C(=O)[C@H](N)Cc2ccccc2)cc1 [Example 9, D-Phe-Pro-p-NHCH2 C6 H4 CH2 NHC(NH)NH2.2TFA]		> 91,000 ng/mL	
N=C(N)Nc1ccc(CCNC(=O)[C@@H]2CCCN2C(=O)[C@@H]2NCC[C@@H]3CCCC[C@@H]32)cc1 [Example 39, D-1-piq-Pro-p-NHCH2 CH2 C6 H4 NHC(NH)NH2.2HCl]		5,300 ng/mL	
Nc1ccc(CCNC(=O)[C@@H]2CCCN2C(=O)[C@@H](CC2CCCCC2)NCC(=O)O)cc1 [Example 63, HO2 CCH2 -D-Cha-Pro-4-NHCH2 CH2 C6 H4 NH2.HCl]		680 ng/mL	
CCC(CC)C(=O)N[C@@H](CCC(=O)O)C(=O)N1CCC[C@H]1C(=O)NCc1ccc(C(=N)N)cc1 [Example 90, (C2 H5)2 CHCO-Glu-Pro-p-NHCH2 C6 H4 C(NH)NH2.HCl]		330 ng/mL	
CCS(=O)(=O)N[C@H](Cc1ccccc1)C(=O)N1CCC[C@H]1C(=O)NCCCc1ccc(C(=N)N)cc1 [Example 30, EtSO2 -D-Phe-Pro-p-NHCH2 CH2 CH2 -C6 H4 C(=NH)NH2.HCl]		1,000 ng/mL	14,000 ng/mL
N=C(N)NCCCCCNC(=O)[C@@H]1CCCN1C(=O)[C@H](N)Cc1ccccc1 [Example 6, D-Phe-Pro-NH(CH2)5 NHC(NH)NH2.HCl]		390 ng/mL	
N=C(N)c1ccc(CNC(=O)[C@@H]2CCCN2C(=O)[C@@H](CC2CCCCC2)NCCCC(=O)O)cc1 [Example 85, N-(3-carboxypropyl)-D-cyclohexylalanyl-N-[[4-(aminoiminomethyl)phenyl]methyl]-L-prolinamide hydrochloride]		4.9 ng/mL	100 ng/mL
